{"source": "ChEMBL document CHEMBL1201862", "about": "“PubChem BioAssay data set” (2004)", "key": {"cells [1]": {"assay": "cells", "type": "functional, cell-based"}, "cells [2]": {"assay": "cells", "type": "functional, cell-based", "remark": "listed apart in the source"}, "[3]": {"molecular_target": "Heat shock protein HSP 90-alpha (Homo sapiens, UniProt P07900)", "type": "functional, organism-based"}, "[4]": {"molecular_target": "26S proteasome non-ATPase regulatory subunit 14 (Homo sapiens, UniProt O00487)", "sequence (O00487 whole entry)": "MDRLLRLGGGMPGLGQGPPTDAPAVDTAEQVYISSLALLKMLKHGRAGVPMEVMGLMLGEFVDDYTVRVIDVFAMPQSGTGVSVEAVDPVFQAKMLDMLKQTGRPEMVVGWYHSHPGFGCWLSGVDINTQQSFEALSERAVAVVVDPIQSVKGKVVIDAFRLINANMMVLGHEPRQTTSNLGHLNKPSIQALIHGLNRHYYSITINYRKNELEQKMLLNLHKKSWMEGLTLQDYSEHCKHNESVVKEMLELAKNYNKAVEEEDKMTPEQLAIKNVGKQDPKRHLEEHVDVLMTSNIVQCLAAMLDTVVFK", "assay": "inhibition of proteasome subunit RPN11 – biochemical, fluorescence polarization, uHTS hits, confirmation (AID 602368)", "type": "functional"}, "[5]": {"molecular_target": "72 kDa type IV collagenase (Homo sapiens, UniProt P08253)", "sequence (P08253 whole entry)": "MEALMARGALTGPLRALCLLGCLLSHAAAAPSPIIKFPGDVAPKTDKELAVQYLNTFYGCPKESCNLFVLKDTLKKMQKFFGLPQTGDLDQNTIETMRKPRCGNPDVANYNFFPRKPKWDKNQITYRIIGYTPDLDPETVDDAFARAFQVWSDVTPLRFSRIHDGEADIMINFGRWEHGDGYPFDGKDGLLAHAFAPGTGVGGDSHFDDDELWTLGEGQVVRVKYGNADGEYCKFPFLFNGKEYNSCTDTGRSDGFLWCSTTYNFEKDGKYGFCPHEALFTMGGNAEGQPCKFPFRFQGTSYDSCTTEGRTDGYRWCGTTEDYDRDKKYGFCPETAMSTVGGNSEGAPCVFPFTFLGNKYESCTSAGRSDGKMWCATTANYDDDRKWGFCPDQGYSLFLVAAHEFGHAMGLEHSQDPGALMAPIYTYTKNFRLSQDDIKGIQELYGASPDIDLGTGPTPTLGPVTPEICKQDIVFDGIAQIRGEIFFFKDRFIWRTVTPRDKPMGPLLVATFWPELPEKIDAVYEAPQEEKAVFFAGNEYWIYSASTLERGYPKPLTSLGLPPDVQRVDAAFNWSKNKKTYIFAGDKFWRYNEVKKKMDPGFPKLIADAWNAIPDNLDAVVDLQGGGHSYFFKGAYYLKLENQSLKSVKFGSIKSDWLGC", "assay": "Dose Response validation of uHTS RPN11 inhibitor hits using a MMP-2 Fluorescence assay.", "type": "functional"}, "Prothrombin": {"molecular_target": "Prothrombin (Bos taurus, UniProt P00735)", "assay": "thrombin inhibition, dose response, biochemical, fluorescence polarization, uHTS hits (AID 602369)", "type": "functional"}, "[6]": {"assay": "Luminescence Cell-Based Dose Confirmation HTS to Identify Activators of 5'UTR Stem-Loop Driven Alpha-Synuclein mRNA Translation in H4 Neuroglioblastoma Cells. [Related pubchem assays: 1829 (Project Summary), 1814 (Primary HTS)]", "type": "functional"}, "[7]": {"assay": "Luminescence Cell-Based Dose Response HTS to Identify Activators of Luciferase Translation or Activity in H4 […] Cells. [Related pubchem assays: 1829 (Project Summary), 1814 (Primary HTS)]", "type": "functional"}, "H4": {"tested_on": "H4", "assay": "Luminescence Cell-Based Dose Response HTS to Identify Activators of 5'UTR Stem-Loop Driven Prion Protein mRNA Translation in H4 Neuroglioblastoma Cells. [Related pubchem assays: 1829 (Project Summary), 1814 (Primary HTS)]", "type": "functional", "conditions": "Homo sapiens"}, "Cytochrome P450 2D6": {"molecular_target": "Cytochrome P450 2D6 (Homo sapiens, UniProt P10635)", "sequence (P10635 whole entry)": "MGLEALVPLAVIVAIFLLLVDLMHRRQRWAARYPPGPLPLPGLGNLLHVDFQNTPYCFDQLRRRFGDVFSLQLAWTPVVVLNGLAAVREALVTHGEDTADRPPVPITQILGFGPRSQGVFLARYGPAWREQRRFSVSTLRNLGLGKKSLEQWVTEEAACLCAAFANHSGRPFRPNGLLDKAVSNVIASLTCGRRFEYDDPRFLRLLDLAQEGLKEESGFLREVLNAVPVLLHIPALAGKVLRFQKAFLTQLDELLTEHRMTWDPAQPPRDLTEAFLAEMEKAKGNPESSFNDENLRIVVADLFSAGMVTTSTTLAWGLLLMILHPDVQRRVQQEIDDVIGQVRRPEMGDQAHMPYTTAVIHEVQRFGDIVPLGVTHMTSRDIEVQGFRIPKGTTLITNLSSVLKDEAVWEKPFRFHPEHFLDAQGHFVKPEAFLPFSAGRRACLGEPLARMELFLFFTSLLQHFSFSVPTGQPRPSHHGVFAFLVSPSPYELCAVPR"}, "[8]": {"assay": "NIH-3T3 fibroblast cytotoxicity, dose response, cytotoxicity control, cell-based, fluorescence, Alamar Blue, secondary assay (AID 2327);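 also: NIH-3T3 mouse fibroblasts cultured with fluconazole at 8 µg/mL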", "type": "functional"}, "[9]": {"assay": "C. albicans growth with fluconazole, confirmation, fluorescence, retest (AID 2467)", "type": "functional, cell-based"}, "INS1": {"tested_on": "INS1", "assay": "beta cell apoptosis inhibitors, cytokine rescue, dose response, luminescence, retest (AID 449756);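 also: cell death triggered by IL-1 beta plus TNF-alpha plus IFN-gamma mixture; protective hits raise ATP signal compared with cytokine alone wells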", "type": "functional, cell-based", "conditions": "Rattus norvegicus"}, "[10]": {"molecular_target": "T1, Rac GTPase-activating protein 1 (Homo sapiens, UniProt Q9H0H5)", "T1 sequence (Q9H0H5 whole entry)": "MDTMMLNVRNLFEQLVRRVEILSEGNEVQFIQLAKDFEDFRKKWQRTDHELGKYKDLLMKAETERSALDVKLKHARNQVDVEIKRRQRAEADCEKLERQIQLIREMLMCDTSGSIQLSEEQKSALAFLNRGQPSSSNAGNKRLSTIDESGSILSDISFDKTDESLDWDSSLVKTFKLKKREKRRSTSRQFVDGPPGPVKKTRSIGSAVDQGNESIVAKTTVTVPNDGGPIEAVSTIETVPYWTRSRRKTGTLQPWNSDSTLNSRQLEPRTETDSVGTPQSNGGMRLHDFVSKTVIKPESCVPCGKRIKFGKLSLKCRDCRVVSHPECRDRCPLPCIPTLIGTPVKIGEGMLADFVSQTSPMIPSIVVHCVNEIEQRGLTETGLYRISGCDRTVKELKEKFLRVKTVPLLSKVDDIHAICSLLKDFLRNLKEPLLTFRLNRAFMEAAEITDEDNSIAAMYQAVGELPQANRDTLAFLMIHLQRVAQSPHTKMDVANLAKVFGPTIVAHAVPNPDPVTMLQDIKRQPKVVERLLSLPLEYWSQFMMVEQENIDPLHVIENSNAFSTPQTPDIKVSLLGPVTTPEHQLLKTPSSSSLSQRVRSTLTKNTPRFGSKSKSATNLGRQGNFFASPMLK", "assay": "MgcRacGAP GTPase-activating activity inhibitors, confirmation, biochemical, ADP Hunter fluorescence, primary and confirmatory (AID 624330)", "type": "functional"}, "[11]": {"assay": "ADAM10 inhibitors, peptide cleavage, dose response, biochemical, QFRET (AID 743254);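 also: ADAM10 enzyme with the DM2 quenched FRET peptide as substrate; EDANS fluorescence gain as the protease cuts the substrate; inhibitor potency against ADAM10 proteolytic activity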"}, "[12]": {"molecular_target": "Disintegrin and metalloproteinase domain-containing protein 17 (Homo sapiens, UniProt P78536)", "sequence (P78536 whole entry, the tested form may be a part)": "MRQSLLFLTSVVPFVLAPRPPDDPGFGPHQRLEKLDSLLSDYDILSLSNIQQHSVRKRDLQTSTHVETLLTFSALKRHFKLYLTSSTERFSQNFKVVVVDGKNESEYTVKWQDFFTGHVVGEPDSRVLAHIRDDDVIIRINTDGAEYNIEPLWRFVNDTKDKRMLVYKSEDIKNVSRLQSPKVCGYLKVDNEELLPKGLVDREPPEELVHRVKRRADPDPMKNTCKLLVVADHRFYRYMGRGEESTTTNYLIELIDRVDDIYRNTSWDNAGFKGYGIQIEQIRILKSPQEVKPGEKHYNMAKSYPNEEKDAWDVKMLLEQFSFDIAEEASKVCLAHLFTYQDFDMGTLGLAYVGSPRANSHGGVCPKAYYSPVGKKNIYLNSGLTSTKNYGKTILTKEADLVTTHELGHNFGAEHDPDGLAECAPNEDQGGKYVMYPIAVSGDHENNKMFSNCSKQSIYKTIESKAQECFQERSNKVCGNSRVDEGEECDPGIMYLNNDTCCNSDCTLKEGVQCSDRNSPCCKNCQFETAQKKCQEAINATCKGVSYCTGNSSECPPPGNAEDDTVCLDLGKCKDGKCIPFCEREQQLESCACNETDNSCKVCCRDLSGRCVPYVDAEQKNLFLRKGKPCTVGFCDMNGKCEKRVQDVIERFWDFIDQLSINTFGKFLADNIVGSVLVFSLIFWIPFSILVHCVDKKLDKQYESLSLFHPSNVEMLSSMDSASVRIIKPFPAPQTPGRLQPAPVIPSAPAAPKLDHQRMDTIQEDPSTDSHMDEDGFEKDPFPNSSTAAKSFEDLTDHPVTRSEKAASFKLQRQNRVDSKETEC", "assay": "ADAM17 protease inhibitors, dose response, counter-screen for ADAM10 exosite inhibitor project, biochemical, quenched FRET substrate (AID 743253)"}, "Aminopeptidase N": {"molecular_target": "T2, Aminopeptidase N (Plasmodium falciparum FcB1/Columbia, UniProt O96935)", "T2 sequence (O96935 whole entry)": "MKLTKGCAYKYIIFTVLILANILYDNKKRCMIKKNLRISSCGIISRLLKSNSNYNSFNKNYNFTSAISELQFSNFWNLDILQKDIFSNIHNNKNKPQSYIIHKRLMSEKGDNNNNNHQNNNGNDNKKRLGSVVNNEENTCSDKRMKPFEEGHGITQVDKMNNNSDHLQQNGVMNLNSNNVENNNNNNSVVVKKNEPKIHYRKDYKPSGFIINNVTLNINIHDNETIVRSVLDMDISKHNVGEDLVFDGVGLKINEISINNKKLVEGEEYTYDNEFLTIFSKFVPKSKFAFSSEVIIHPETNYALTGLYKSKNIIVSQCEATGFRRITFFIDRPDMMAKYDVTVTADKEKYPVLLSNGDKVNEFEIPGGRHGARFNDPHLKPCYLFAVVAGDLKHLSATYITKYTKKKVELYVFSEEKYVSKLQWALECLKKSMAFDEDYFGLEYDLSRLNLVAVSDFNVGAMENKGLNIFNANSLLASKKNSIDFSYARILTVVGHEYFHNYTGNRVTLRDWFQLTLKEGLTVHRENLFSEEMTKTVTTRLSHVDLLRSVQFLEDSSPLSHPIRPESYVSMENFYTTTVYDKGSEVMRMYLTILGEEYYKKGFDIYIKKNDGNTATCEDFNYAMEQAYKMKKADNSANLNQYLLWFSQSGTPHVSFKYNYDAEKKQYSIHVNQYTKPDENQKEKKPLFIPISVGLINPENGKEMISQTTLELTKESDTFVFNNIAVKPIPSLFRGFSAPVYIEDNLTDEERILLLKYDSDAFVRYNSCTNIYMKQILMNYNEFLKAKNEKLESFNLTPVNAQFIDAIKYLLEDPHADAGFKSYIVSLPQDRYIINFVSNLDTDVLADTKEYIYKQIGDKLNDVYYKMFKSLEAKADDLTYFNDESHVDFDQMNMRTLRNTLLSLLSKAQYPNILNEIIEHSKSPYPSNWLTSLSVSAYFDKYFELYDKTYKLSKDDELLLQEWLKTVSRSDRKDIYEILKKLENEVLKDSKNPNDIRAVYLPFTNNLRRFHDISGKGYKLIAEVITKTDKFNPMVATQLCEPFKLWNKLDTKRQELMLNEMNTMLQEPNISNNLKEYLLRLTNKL", "assay": "P. falciparum M1AAP inhibitors, biochemical, fluorogenic H-Leu-NHMec substrate, 1536-well (AID 1445)", "set-up": "species or system Plasmodium falciparum 3D7, 3D7"}, "Cysteine protease ATG4B": {"molecular_target": "T3, Cysteine protease ATG4B (Homo sapiens, UniProt Q9Y4P1)", "T3 sequence (Q9Y4P1 whole entry)": "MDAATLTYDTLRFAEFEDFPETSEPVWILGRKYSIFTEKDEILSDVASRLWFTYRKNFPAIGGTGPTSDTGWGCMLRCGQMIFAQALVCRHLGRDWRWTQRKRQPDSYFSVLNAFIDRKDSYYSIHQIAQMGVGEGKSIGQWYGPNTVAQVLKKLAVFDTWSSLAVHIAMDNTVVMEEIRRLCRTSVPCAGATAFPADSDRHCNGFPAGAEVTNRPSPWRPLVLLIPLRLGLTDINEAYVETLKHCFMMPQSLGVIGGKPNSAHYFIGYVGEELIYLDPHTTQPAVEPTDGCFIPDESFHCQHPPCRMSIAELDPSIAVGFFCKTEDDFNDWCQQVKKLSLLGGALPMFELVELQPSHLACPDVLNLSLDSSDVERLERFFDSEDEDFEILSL", "type": "functional"}, "Phospholipase A2": {"molecular_target": "Phospholipase A2 (Homo sapiens, UniProt P04054)", "sequence (P04054 whole entry)": "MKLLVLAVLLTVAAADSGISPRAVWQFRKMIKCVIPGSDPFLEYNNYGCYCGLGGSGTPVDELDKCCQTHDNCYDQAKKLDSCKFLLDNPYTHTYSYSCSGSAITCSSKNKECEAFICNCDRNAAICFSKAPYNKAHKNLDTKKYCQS", "type": "functional"}, "[13]": {"tested_on": "Streptococcus sp. 'group A'", "assay": "growth inhibition of control SK(-) GAS strain, dose response, counter-screen for streptokinase expression inhibitor project, luminescence, kanamycin, BacTiterGlo, confirmation (AID 1900)", "type": "functional, organism-based"}, "Streptokinase A": {"molecular_target": "T4, Streptokinase A (Streptococcus pyogenes serotype M1, UniProt P10520)", "T4 sequence (P10520 whole entry)": "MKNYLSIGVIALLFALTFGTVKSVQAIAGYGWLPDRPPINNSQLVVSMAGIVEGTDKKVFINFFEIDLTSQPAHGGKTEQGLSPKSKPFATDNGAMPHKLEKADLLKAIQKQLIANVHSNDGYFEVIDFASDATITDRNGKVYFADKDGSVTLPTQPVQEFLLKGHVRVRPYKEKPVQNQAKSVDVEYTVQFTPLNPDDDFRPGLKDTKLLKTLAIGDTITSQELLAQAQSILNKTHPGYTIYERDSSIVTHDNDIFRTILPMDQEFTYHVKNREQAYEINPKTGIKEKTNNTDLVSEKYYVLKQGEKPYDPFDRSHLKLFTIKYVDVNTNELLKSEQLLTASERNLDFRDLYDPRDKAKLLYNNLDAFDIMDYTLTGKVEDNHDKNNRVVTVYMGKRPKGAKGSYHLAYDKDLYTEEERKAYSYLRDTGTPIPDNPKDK", "assay": "S. pyogenes streptokinase expression inhibitors, potency, dose response, plasminogen activation absorbance, OD405 (AID 1914);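 also: secreted streptokinase activity via plasminogen activation per viability signal from cell pellet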", "type": "functional, Streptococcus pyogenes M1 GAS"}, "Streptococcus": {"tested_on": "Streptococcus", "assay": "Group A Streptococcus viability loss, dose response, counter-screen for streptokinase expression inhibitor project, luminescence, BacTiterGlo (AID 1915);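 also: potency for reduction of bacterial viability or growth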", "type": "functional, organism-based"}}, "note": "Active and inactive are the calls of the source.", "data": [{"compound": "CCOC(=O)c1ccc(N2CN(CCc3ccccc3)CN=C2S)cc1", "values": [{"measurement": "IC50", "setting": "cells [1]", "result": "> 29.9 µM (inactive)"}, {"measurement": "EC50", "setting": "cells [2]", "result": "> 29.9 µM (inactive)"}]}, {"compound": "C=CCn1c(C)cc(C(=O)CSc2nnc(NCc3ccccc3)s2)c1C", "values": [{"measurement": "AC50", "setting": "[3]", "result": "4.03 µM (active)"}]}, {"compound": "N=C1/C(=C\\c2ccc(-c3cccc(Cl)c3)o2)C(=O)N=C2SC=C(c3ccccc3)N12", "values": [{"measurement": "IC50", "setting": "[4]", "result": "27.8 µM (active)"}, {"measurement": "IC50", "setting": "[5]", "result": "> 100 µM (inactive)"}, {"measurement": "IC50", "setting": "Prothrombin", "result": "52.9 µM (active)"}]}, {"compound": "NC(=Nc1cccc2ccccc12)Nc1nc(O)c2c(n1)CCC2", "values": [{"measurement": "EC50", "setting": "[6]", "result": "> 120 µM (not active)"}, {"measurement": "EC50", "setting": "[7]", "result": "> 120 µM (not active)"}, {"measurement": "EC50", "setting": "H4", "result": "> 120 µM (not active)"}, {"measurement": "IC50", "setting": "[4]", "result": "24.3 µM (active)"}, {"measurement": "IC50", "setting": "[5]", "result": "> 100 µM (inactive)"}, {"measurement": "IC50", "setting": "Prothrombin", "result": "> 100 µM (inactive)"}, {"measurement": "AC50", "setting": "Cytochrome P450 2D6", "result": "11.2 µM (inconclusive)"}]}, {"compound": "COc1ccc(C(=O)NC(=S)NNC(=O)c2cnccn2)cc1", "values": [{"measurement": "EC50", "setting": "[8]", "result": "9.88 µM (active)"}, {"measurement": "EC50", "setting": "[9]", "result": "2.02 µM (active)"}, {"measurement": "AC50", "setting": "[3]", "result": "2.71 µM (active)"}, {"measurement": "AC50", "setting": "INS1", "result": "0.933 µM (active)"}]}, {"compound": "COc1cc(/C=C2/C(=O)NN(c3ccc(Cl)cc3)C2=O)cc(Br)c1O", "values": [{"measurement": "IC50", "setting": "[4]", "result": "14.5 µM (active)"}, {"measurement": "IC50", "setting": "[5]", "result": "54.8 µM (active)"}, {"measurement": "IC50", "setting": "Prothrombin", "result": "60.6 µM (active)"}, {"measurement": "IC50", "setting": "[10]", "result": "103 µM (active)"}]}, {"compound": "CCN(CC)c1ccc(/C=N/NC(=O)c2cccc(S(=O)(=O)Nc3ccccc3OC)c2)cc1", "values": [{"measurement": "IC50", "setting": "[4]", "result": "26.3 µM (active)"}, {"measurement": "IC50", "setting": "[5]", "result": "> 100 µM (inactive)"}, {"measurement": "IC50", "setting": "Prothrombin", "result": "33.2 µM (active)"}]}, {"compound": "C#CCN(C[C@@H]1[C@@H](OC(=O)NCc2ccc(OC)c(OC)c2)[C@@H](OC(=O)NCc2ccc(OC)c(OC)c2)Cn2c(=O)n(CCCCCC)c(=O)n21)S(=O)(=O)c1ccc(C)cc1", "values": [{"measurement": "IC50", "setting": "[11]", "result": "> 69.5 µM (inactive)"}, {"measurement": "IC50", "setting": "[12]", "result": "> 69.5 µM (inactive)"}]}, {"compound": "Cc1cccc(C)c1OCc1nc2ccccc2c(=O)n1/N=C/c1ccc(OCC(=O)O)cc1", "values": [{"measurement": "IC50", "setting": "Aminopeptidase N", "result": "< 1 µM (active)"}, {"measurement": "IC50", "setting": "Cysteine protease ATG4B", "result": "14.7 µM (active)"}, {"measurement": "IC50", "setting": "Phospholipase A2", "result": "9.81 µM (active)"}]}, {"compound": "Oc1cccc(/C=N/N(Cc2ccccc2)c2ccccc2)c1", "values": [{"measurement": "EC50", "setting": "[13]", "result": "6.42 µM (active)"}, {"measurement": "EC50", "setting": "Streptokinase A", "result": "> 150 µM (not active)"}, {"measurement": "EC50", "setting": "Streptococcus", "result": "7.85 µM (active)"}, {"measurement": "IC50", "setting": "[11]", "result": "> 7.73 µM (active)"}, {"measurement": "IC50", "setting": "[12]", "result": "> 69.5 µM (inactive)"}]}]}
